Results from patent publication US20230310436A1, “COMBINATION THERAPY FOR CANCERS WITH KRAS MUTATION” (COTHERA BIOSCIENCE, INC., priority 2019, published 2023).

Legend:
Type in all cases: cell-based
[1] = test system: KRAS^G12D-NSCLC H1588 cell line; test: Ex vivo Edu proliferation test (MI, GI %), H1588; conditions: Table 4; 4 days; uM: osimertinib 0.5, afatinib 0.2, cobimetinib 0.4, trametinib 0.02, TAK-733 0.18, palbociclib 0.15, ribociclib 5
Protocol: (§1) For ex vivo drug testing, the cells were exposed to a combination of drugs or single drugs for 4 days or 7 days. Following exposure with drug, 1,000-5,000 cells were labeled with 5-ethynyl-2′-deoxyuridine (Edu) to assess the tumor cell proliferation rates. The labeling lasted 24 hours in the presence of drug exposure. In the control group, epithelial tumor cells received no drug exposure with media change (with 0.1% DMSO), but were similarly labeled with Edu. The labeled cells were fixed and blocked with 3% BSA and 0.5% Triton X-100 for 2 hours at room temperature, followed by staining with Hoechst 33342 and EpCAM antibody (1:4000) in PBS solution containing 0.5% Triton X-100 overnight at 4° C. Subsequently, the cells were rinsed with PBST then incubated with Alexa Fluor® 647 conjugated goat-antimouse secondary antibody for 30 minutes at room temperature.
(§2) The incorporated Edu was detected by Click-iT reaction where fixed cells were incubated with a reaction mixture containing 1× Click-iT Edu reaction buffer, CuSO4, and azide-conjugated Alexa Fluor dye in the dark. The stained cells were washed with PBS two times before image acquisition and analysis.
(§3) For image acquisition and analysis, the stained tumor cells were imaged by a high-content screening (HCS) platform (Thermo Scientific CellomicsArrayScanXTi HCS reader). The 10× objective was used to collect images. Twenty-five fields were imaged for each well for the analysis. From the images three fluorescent signals were obtained from the HCS reader. Blue fluorescent signals recorded nucleus signals stained with Hoechst 33342, green fluorescent signal detected the Edu incorporated in newly synthesized DNA, and red fluorescent signal detected the EpCAM positive epithelial cells population.
(§4) The MI (Maximum Inhibition Index) was calculated using the EpCAM and Edu positive readout (Tables 1-4). MI=Edu positive cells in control/Edu positive cells in treatment. MI4 indicates an MI value after 4 days of treatment and MI7 indicates an MI values after 7 days of treatment. The MI and growth inhibition rate (GI %) values for KRAS^G12A-NSCLC (H1573 and H2009), KRAS^G12C-NSCLC (H358, H23 and H2030), KRAS^G12V-NSCLC (H2291 and H2444) and KRAS^G12D-NSCLC (H1588 and SK-LU-1) cell lines are shown in Tables 1-4, respectively. GI % is calculated as GI %=(1−1/MI)*100%.

[2] = test system: KRAS^G12C-NSCLC H2030 cell line; test: Ex vivo Edu proliferation test (MI, GI %), H2030; conditions: Table 2a; 7 days; uM: osimertinib 0.5, afatinib 0.2, cobimetinib 0.4, trametinib 0.02, palbociclib 0.15, ribociclib 5
Protocol: as §1, §2, §3, §4

[3] = test system: KRAS^G12C-NSCLC H23 cell line; test: Ex vivo Edu proliferation test (MI, GI %), H23; conditions: Table 2a; 7 days; uM: osimertinib 0.5, afatinib 0.2, cobimetinib 0.4, trametinib 0.02, palbociclib 0.15, ribociclib 5
Protocol: as §1, §2, §3, §4

[4] = test system: KRAS^G12A-NSCLC H2009 cell line; test: Ex vivo Edu proliferation test (MI, GI %), H2009; conditions: Table 1; 4 days; uM: osimertinib 0.5, afatinib 0.2, cobimetinib 0.4, trametinib 0.02, TAK-733 0.18, palbociclib 0.15, ribociclib 5
Protocol: as §1, §2, §3, §4

[5] = test system: KRAS^G12D-NSCLC SK-LU-1 cell line; test: Ex vivo Edu proliferation test (MI, GI %), SK-LU-1; conditions: Table 4; 4 days; uM: osimertinib 0.5, afatinib 0.2, cobimetinib 0.4, trametinib 0.02, TAK-733 0.18, palbociclib 0.15, ribociclib 5
Protocol: as §1, §2, §3, §4

[6] = test system: KRAS^G12C-NSCLC H358 cell line; test: Ex vivo Edu proliferation test (MI, GI %), H358; conditions: Table 2a; 7 days; uM: osimertinib 0.5, afatinib 0.2, cobimetinib 0.4, trametinib 0.02, palbociclib 0.15, ribociclib 5
Protocol: as §1, §2, §3, §4

[7] = test system: KRAS^G12V-NSCLC H2444 cell line; test: Ex vivo Edu proliferation test (MI, GI %), H2444; conditions: Table 3; 4 days; uM: osimertinib 0.5, afatinib 0.2, trametinib 0.02, TAK-733 0.18, palbociclib 0.15, ribociclib 5
Protocol: as §1, §2, §3, §4

[8] = test system: KRAS^G12A-NSCLC H1573 cell line; test: Ex vivo Edu proliferation test (MI, GI %), H1573; conditions: Table 1; 4 days; uM: osimertinib 0.5, afatinib 0.2, cobimetinib 0.4, trametinib 0.02, TAK-733 0.18, palbociclib 0.15, ribociclib 5
Protocol: as §1, §2, §3
The MI (Maximum Inhibition Index) was calculated using the EpCAM and Edu positive readout (Tables 1-4). MI=Edu positive cells in control/Edu positive cells in treatment. MI4 indicates an MI value after 4 days of treatment and MI7 indicates an MI values after 7 days of treatment. […] GI % is calculated as GI %=(1−1/MI)*100%.

[9] = test system: KRAS^G12V-NSCLC H2291 cell line; test: Ex vivo Edu proliferation test (MI, GI %), H2291; conditions: Table 3; 7 days; uM: osimertinib 0.5, afatinib 0.2, trametinib 0.02, TAK-733 0.18, palbociclib 0.15, ribociclib 5
Protocol: as §1, §2, §3, §4

SMILES: CN(C)C/C=C/C(=O)Nc1cc2c(Nc3ccc(F)c(Cl)c3)ncnc2cc1O[C@H]1CCOC1 [Afatinib, afatinib]
- GI % (Growth Inhibition Rate), H1588 [1]: 43.02%
- MI 4 (Maximum Inhibition Index), H1588 [1]: 1.75
- GI % (Growth Inhibition Rate), H2030 [2]: 55.33%
- MI 7 (Maximum Inhibition Index), H2030 [2]: 2.23
- GI % (Growth Inhibition Rate), H23 [3]: 16.09%
- MI 7 (Maximum Inhibition Index), H23 [3]: 0.87
- GI % (Growth Inhibition Rate), H2009 [4]: 14.83%
- MI 4 (Maximum Inhibition Index), H2009 [4]: 1.17
- GI % (Growth Inhibition Rate), SK-LU-1 [5]: 8.65%
- MI 4 (Maximum Inhibition Index), SK-LU-1 [5]: 1.09
- GI % (Growth Inhibition Rate), H358 [6]: 22.84%
- MI 7 (Maximum Inhibition Index), H358 [6]: 1.30
- GI % (Growth Inhibition Rate), H2444 [7]: 44.30%
- MI 4 (Maximum Inhibition Index), H2444 [7]: 1.80
- GI % (Growth Inhibition Rate), H1573 [8]: 42.36%
- MI 4 (Maximum Inhibition Index), H1573 [8]: 1.73
- GI % (Growth Inhibition Rate), H2291 [9]: 26.00%
- MI 7 (Maximum Inhibition Index), H2291 [9]: 1.35
